For orientation: melting point means the temperature of the solid-liquid transition.

In the case of `COc1c(C2CCN(CCCCNC(=O)c3ccc(-c4ccc(Cl)cc4)cn3)CC2)ccc2c1CCCC2`, the melting point is 103 to 105 °C.
In turn, `O=C1NCC2=C1CN=C(c1ccccc1Cl)c1cc(Cl)ccc12` came in with a melting point of 243 to 244 °C.
Compound `CCOC(=O)c1c(CCO)nc2cc(OC)c(OC)cc2c1-c1ccc(OC)c(OC)c1` gave a melting point of 150 to 151 °C.
For `Cc1c(C)n(CC=C(Cl)Cl)c2c(OCc3ccccc3)nncc12` the value was 149 to 151 °C; for `Clc1ccc(-c2nc3n(c2-c2ccc(Cl)cc2)CCC3)cc1`, 189 to 192 °C; for `O=C1C=CC(O)(c2nc3ccccc3o2)C=C1`, 116 to 117 °C.
`COC(=O)c1cn(Cc2ccc3cc(OCc4ccccc4)ccc3c2)cc1-c1ccccc1`: the melting point was 109 to 110 °C.
Turning to `CC(c1oc2ccccc2c(=O)c1-c1cccc(F)c1)n1nc(-c2ccc3cc[nH]c3c2)c2c(N)ncnc21` (centres undefined), the melting point was in the range of 222 to 225 °C.
For the compound `CCOC(=O)Nc1ccc(OC)cc1[N+](=O)[O-]`, the melting point was 56 to 57 °C.
In the case of `CCOC(=O)NCC(=O)NNC1=NC(C)C(c2ccccc2)=NN1` (centres undefined), the melting point was 144 to 146 °C.
In turn, `COc1ccc2c(c1)c(-c1cc3nccnc3[nH]1)cn2CC(=O)N1CCOCC1` came in with a melting point of 263 to 267 °C.
For `O=C1NN=C(c2cc3ccccc3o2)CO1` the value was 209 to 211 °C; for `COc1cc(C2CCN(C(=O)OC(C)(C)C)CC2)cnc1COc1ccc(S(C)(=O)=O)cc1`, 153 to 154 °C; for `NC(=O)COC(=O)c1c(Cl)ccc(Cl)c1Cl`, 158 to 160 °C.
Compound `CCN(CC)c1cc(C)c2ncc(C#N)c(O)c2c1` registered a melting point greater than 250 °C.
For `O=C(COc1ccc(-c2ccc(F)cc2)cc1)Nc1cscc1C(=O)O` the value was 244 to 251 °C; for `CCC(OCCc1c2c3c(c(OCc4ccc(-c5ccccc5)cn4)ccc3n1Cc1ccc(Cl)cc1)SC(C)C2)C(=O)O` (centres undefined), 159 to 162 °C; for `Cc1cc(=O)[nH]c2c1C(=O)CC(c1ccccc1Cl)C2` (centres undefined), 290 to 291 °C.
`C[C@@H]1N=C(c2ccccc2)c2cc(NC(=O)CCCCCCC(=O)O)ccc2N(C)C1=O` registered a melting point of 87 to 88 °C.
`CCCCCCCCCCCCOS(=O)(=O)O` gave a melting point of 72 °C.
`COc1cccc(CNC(=O)c2nc3scc(COCc4ccc(C(=O)O)cc4)c3c(=O)[nH]2)c1` yielded a melting point of 229 to 230 °C.
With `CCOC(=O)c1nn(-c2ccc(Cl)cc2Cl)c(-c2ccc(Br)cc2)c1CBr`, the melting point turned out to be 116 °C.
As to `CC(C)C(Oc1ccccc1)C(=O)OC1CC(O)C=C2C=CC(C)C(CCC3CC(O)CC(=O)O3)C21` (mixture of isomers), the melting point fell in the range of 143 to 145 °C.
In the case of `O=C1NC(=O)C2(CCN(Cc3ccccc3)CC2)O1` it was 291 to 294 °C; in that of `NC(=O)Nc1ccc(/C=C/C(=O)O)cc1`, greater than 350 °C.
With `O=C(NCc1ccccn1)c1ccnc(N2CCN(CC3CC3)C2=O)c1`, the melting point lay within 122 to 123 °C.
Regarding `CC(C)c1[nH]c2ccccc2c1C=C1SC(=S)N(CC(=O)O)C1=O`, the melting point fell in the range of 259 to 260 °C.
For `CCCC(CCC)n1c(CC)nc2c1c(=O)n(C)c(=O)n2-c1ccc(Cl)cc1Cl` the value was 185 to 186 °C; for `CC(C)(C)OC(=O)NS(=O)(=O)c1ccc(Cl)cc1`, 98 to 99 °C; for `COC(=O)C1=C(C)NN=C(C(=O)N(C)Cc2ccccc2)C1c1ccccc1C(F)(F)F` (centres undefined), 197 °C.
In turn, `COc1ccnc(CCc2nc3cc(-c4ccc(S(=O)(=O)N5CCC6(CC5)OCCO6)cc4)cnc3[nH]2)c1` gave a melting point of 121 to 122 °C.
On to `CCCOc1ccccc1-c1nc2cc3ncn(Cc4ccccc4)c3cc2c(=O)[nH]1`, for which the melting point lay within 218 to 219 °C.
`CCOc1cc2cc(C(=O)O)cc(-c3ccnc(Cl)c3)c2cc1OCC` registered a melting point greater than 250 °C.
In turn, `COc1ccc(C2Sc3cc(Cl)ccc3NC(=O)C2O)cc1` (centres undefined) gave a melting point of 237 to 241 °C.
Take `COC(=O)CSc1cccc(CNC(=O)C2Cc3ccccc3N2S(=O)(=O)c2ccc(-c3cccc(C(F)(F)F)c3)cc2)c1` (centres undefined): the melting point was determined as 51 °C.
`COc1cc2nc(N3CCN(C(=O)C=Cc4ccc(Br)cc4)CC3)nc(N)c2cc1OC` displayed a melting point of 266 to 268 °C.
As to `CCCN1CCc2[nH]c3ccc4scc(C)c4c3c2C1`, the melting point was 169 °C.
Turning to `C#CCn1c(=O)n(CC=C)c(=O)n(-c2cc(N3C(=O)C4=C(CCCC4)C3=O)c(F)cc2Cl)c1=O`, the melting point fell in the range of 107 to 114 °C.
For `COc1cc(C=CC(=O)c2cccc(N(C)C)c2)cc(OC)c1`, the melting point was in the range of 81.8 to 82.6 °C.
For the compound `CC(=O)SCCC(=O)N1[C@@H](c2ccccc2O)SC[C@H]1C(=O)N[C@@H](CCC(=O)O)C(=O)O`, the melting point is 93 to 98 °C.
In the case of `COC(=O)NNC(=S)Cc1ccc(C(C)(C)C)cc1`, the melting point fell in the range of 93.5 to 94 °C.
`COc1ccc2[nH]cc(/C(C#N)=C/c3cccc(C#N)c3)c2c1`: the melting point was found to be 149 °C.
Regarding `CCCC(=O)c1cnc2c(OCCN(C)C)cccc2c1Nc1ccccc1C`, the melting point lay in the range of 88 to 90 °C.
For `O=C(O)c1cc(-n2c(-c3ccc(Br)cc3)cc3c2CCC3)ccc1O`, the melting point fell in the range of 215 to 216 °C.
In the case of `COc1cc(Nc2c(NC(C)C(C)(C)C)c(=O)c2=O)c2ncccc2c1` (centres undefined) it was 243 to 245 °C; in that of `CCCc1c(N)ccc2c(=O)cc(C(=O)OCC)oc12`, 84 to 87 °C.
The compound `CCC(C)(C)c1ccc2nc(-c3ccc([N+](=O)[O-])cc3)oc2c1` yielded a melting point of 147 to 148 °C.
Regarding `CCCN(C)CCOc1ccc(-n2ccc(OCc3ccc(Cl)cn3)cc2=O)cc1`, the melting point was in the range of 119 to 123 °C.
With `CCc1noc(-c2ncn3c2c(=O)n(CC)c2ncccc23)n1`, the melting point amounted to 221 °C.
For `Cc1nnc(-c2ccc3occ(-c4ccc(OCCS(C)(=O)=O)cc4)c3c2)o1` the value was 132 to 133 °C; for `CN(C)C(=S)SC(C[N+](=O)[O-])c1ccc2c(c1)OCO2` (centres undefined), 122 to 124 °C.
As for `CC(=O)N1CCc2cc(S(=O)(=O)n3c(CCC(=O)O)cc4cc(C(F)(F)F)ccc43)ccc21`, the melting point lay within 205 to 207 °C.
On to `CC(C)c1cc(Oc2ccccc2)cc(C2CCCCC2)c1N`, for which the melting point was 108 to 110 °C.
Compound `C#CCn1c(-c2c(Cl)cccc2Cl)nc(-c2ccncc2)c1-c1ccc(Cl)cc1` came in with a melting point of 169 to 172 °C.
In the case of `CC(C)c1csc(/C=C/c2cc([N+](=O)[O-])ccc2Cl)n1`, the melting point was 86 to 89 °C.
In turn, `CC(=O)Cc1ccc(CC2SC(=O)NC2=O)cc1` (centres undefined) showed a melting point of 133 to 135 °C.
Turning to `O[C@H]1CC[C@H](Nc2nccc(-n3nnc4ccccc43)n2)CC1`, the melting point was in the range of 225 to 228 °C.
`Nc1ccc(OCc2ccccc2)cc1[N+](=O)[O-]` yielded a melting point of 139 to 141 °C.
The compound `COC(=O)CNC(=O)c1[nH]c(C)c(-c2nc3ccc(C(=O)c4ccccc4)cc3[nH]2)c1C` displayed a melting point of 149 to 151 °C.
For `Cc1nc(Sc2cc(C(=O)O)ccn2)sc1CC(=O)O` the value was 212 to 214 °C; for `Cn1c2cc(Cl)ccc2c2oc(C(=O)Cl)cc21`, 154 to 156 °C.
For `FC(F)(F)c1ccc(NC2CCNCC2)nc1` the value was 128 °C.
Compound `O=C(O)C(=O)c1ccc(OCCOc2cc3ccccc3cc2OCCO)cc1` gave a melting point of 176 to 177 °C.
In turn, `CC(=O)N(C)c1cc(N)cc(N(C)C(C)=O)c1` had a melting point of 179 to 181 °C.
In the case of `CC1(C)C(C=C(F)C(=O)O)C1C(=O)OCc1ccccc1` (centres undefined) it was 88 °C; in that of `NCC1(SCc2ccccc2)C2CC3CC(C2)CC1C3` (centres undefined), 82 to 85 °C.
As to `CC1=Nc2c3cc(-c4ccccc4)nc-3ccn2C1`, the melting point was 222 °C.
In the case of `CNC(=S)NCCCCc1nc[nH]c1Br` it was 153 to 155 °C; in that of `CC(=O)C1=C(C)NC(C)=C(c2nc(CN(C)Cc3ccccc3)no2)C1c1cccc([N+](=O)[O-])c1` (centres undefined), 138 to 139 °C.
As to `C=CC(=O)OC(C#N)Cc1ccc(OC)c(OC)c1` (centres undefined), the melting point was 154 to 156 °C.
In the case of `O=C(O)Cc1ccc2c(c1)C(=O)Cc1cccnc1S2` it was 212 to 214 °C; in that of `C=C(C)CSCC(C)C1CC=C2C3=C(CCC21C)C1(C)CCC(O)C(C)(C)C1CC3` (centres undefined), 128 to 132 °C; in that of `O=C(c1ccccn1)c1nsc2nccn12`, 147 to 148 °C.
In the case of `CC(=O)OCC1OC(c2cnc(Cl)nc2Cl)C(OC(C)=O)C1OC(C)=O` (centres undefined) it was 75 to 78 °C.
`COC(=O)c1ccc(CC(C)(C)NCC(O)c2cc3ccccc3o2)cc1` (centres undefined) had a melting point of 127 to 129 °C.
Compound `Cc1cc2c(cc1-c1ccc(O)c(C=O)c1)C(C)(C)CCC2(C)C` showed a melting point of 138 to 139 °C.
For `Cc1cc(CCCc2ccc(CO)c(CO)c2)ccc1O` the value was 92 °C.
`CN(C)Cc1ccc(-c2cc3ncc(C#N)c(Cl)c3s2)cc1` gave a melting point of 166 to 168 °C.
As for `CCC(C)(CC)c1ccc(=O)[nH]n1`, the melting point is 97 to 99 °C.
In the case of `CCOCc1cc(COc2cc(CCC(=O)O)n(-c3ccccc3)n2)cc(Oc2ncc(C(F)(F)F)cc2Cl)c1`, the melting point was in the range of 124 to 128 °C.
For `CCN1CCN(c2nc(-c3ccc(OCCO)cc3)cc3ccsc23)CC1` the value was 135 to 136 °C.
`NC(=O)C1=CC=CN(CCc2ccc(Cl)s2)C1Oc1ccc(F)cc1` (centres undefined): the melting point fell in the range of 78 to 80 °C.
For `CC(C)Cn1c(CN)c(-c2ccccc2)c2cc(/C=C/C(N)=O)ccc2c1=O` the value was 228 to 230 °C; for `Nc1nc2ccccc2c2c1ncn2CCOCC#Cc1cccs1`, 148 to 150 °C; for `O=C(CF)NOC(=O)C(F)(F)F`, 56 to 59 °C.
The compound `CCn1c(=O)ccc2cnc(Nc3ccc(N(C)C)cc3)nc21` returned a melting point of 189 to 191 °C.
`CCn1c(-c2ccnc(N)c2)nnc1C(C)(C)Oc1c(F)cc(Cl)cc1F` registered a melting point of 150 °C.
For `O=C1Cn2ncnc2-c2ccccc2N1` the value was 223 °C.
Take `Cc1cccc(Cl)c1CC#N`: the melting point lay in the range of 49 to 51 °C.

The values are drawn from a melting point compilation (Tetko et al.; mined from patent text by program, amines drawn as free bases though some values may be those of a salt).
